Measurements from patent US10450258B2, “Substituted aromatic compounds for the treatment of pulmonary fibrosis, liver fibrosis, skin fibrosis and cardiac fibrosis” (PROMETIC PHARMA SMT LIMITED, priority 2013, dated 2019).
“Also recorded” adds a separate entry of the source.

Experiments:
[1] = system: TGF-β, CTGF, IL-23p19, IL-6, collagen 1, fibronectin (FN-1), collagen 3 mRNA in lung tissue; experiment: Real-time PCR of inflammatory and fibrotic marker mRNA in lung tissue, bleomycin-induced pulmonary fibrosis mouse model; format: in vivo, mouse (male C57BL6)
Method: Male C57BL6 mice are administered intratracheal instillation of bleomycin sulphate (0.025 U) at day 0, randomized and administered Compound I (oral administration, 100 mg/kg and 200 mg/kg) on day 7 to day 20.
Further analysis of the lung tissue was undertaken. CTGF, collagen 1 and IL-23p19 mRNA expression was quantified by real-time PCR.
It was therefore evaluated side-by-side with Compound I in the bleomycin-induced pulmonary fibrosis mouse model by the same protocol described in Example 4 above. Compound I (200 mg/kg) and pirfenidone (400 mg/kg) were orally administered either alone or in combination.
In order to determine the effect of Compound I on pulmonary fibrosis, further analysis of the lung tissue was undertaken. TGF-β, CTGF, IL-23 and IL-6 mRNA expression was quantified by real-time PCR. […] Oral administration of pirfenidone had no effect on CTGF mRNA expression but decreased TGF-β, IL-23 and IL-6 mRNA expression. […]

[2] = system: normal human dermal fibroblasts (NHDF); experiment: TGF-β-induced and basal CTGF, collagen 1 and α-SMA transcript expression in NHDF (quantitative real-time PCR); format: cell-based
Method: The effect of Compound of the invention on skin fibrosis was studied using normal human dermal fibroblasts (NHDF).
In vitro analysis was undertaken to determine the effect of Compound I on TGF-β-induced CTGF, collagen 1 and α-SMA (markers of fibrosis) on normal human dermal fibroblasts (NHDF). Expression of the profibrotic (CTGF) and fibrotic markers (collagen 1 and α-SMA) were determined by quantitative real-time PCR.
Myofibroblasts are terminally differentiated cells derived from fibroblasts, epithelial and mesenchymal stem/stromal (fibrocytes) cells that play an important role in tissue fibrosis via increased matrix synthesis such as collagen. α-SMA is a well-known marker of myofibroblast.

[3] = system: normal human dermal fibroblasts (NHDF); experiment: Scratch assay (migration and invasion) of EGF-stimulated NHDF; format: cell-based; settings: mitomycin-treated NHDF, compound 0.5 mM, FIG. 26
Method: The next experiments (scratch assay, invasion/migration) were designed to determine the effect of Compound I on EGF-stimulated normal human dermal fibroblasts (NHDF). In summary, mitomycin-treated NHDF were stimulated with EGF and incubated in the presence or absence (control) of Compound I (0.5 mM). EGF stimulated fibroblast invasion into the scratch which is inhibited by Compound I (FIG. 26).

[4] = system: collagen 1 mRNA in HK-2 cells (epithelial cells); experiment: Inhibition of collagen mRNA in TGF-β-treated HK-2 epithelial cells; format: cell-based; settings: Homo sapiens, HK-2, compound 0.5 mM
Method: (§1) CTGF, collagen 1 and α-SMA are fibrotic markers produced by activated fibroblasts and by epithelial cells that undergo to epithelial-mesenchymal transition (EMT).
(§2) Table 2: Percentage of inhibition of collagen in epithelial cells (HK2 cells) and fibroblasts (NHDF) and percentage of inhibition of α-SMA in fibroblasts (NRK-49F and NHDF) has been determined for several compounds according the invention. In all cases, the mRNA of collagen and α-SMA has been measured, and the inhibition was evaluated in presence of a respective concentration of the tested compound. The compounds have been tested at different concentrations [mM]. All compounds reduce the expression of collagen and α-SMA in HK-2, NHDF and NRK-49F cells.

[5] = system: collagen 1 mRNA in NHDF cells; experiment: Inhibition of collagen mRNA in TGF-β-activated NHDF fibroblasts; format: cell-based; settings: Homo sapiens, compound 0.5 mM
Method: as §1, §2

α-SMA mRNA in NHDF cells = experiment: Inhibition of α-SMA mRNA in TGF-β-activated NHDF fibroblasts; format: cell-based; settings: Homo sapiens, compound 0.5 mM
Method: as §1, §2

[6] = system: heart fibrosis in 5/6 nephrectomized-catheterized rats; experiment: Heart fibrosis in 5/6 nephrectomized-catheterized (5/6-Nx) rats; format: in vivo, rat (male Sprague-Dawley); settings: for hydroxyproline (collagen) content in heart: FIG. 31
Excerpt: Implantation of a femoral catheter increases the presence of heart fibrosis in our 5/6 nephrectomized (5/6-Nx) model and it was used to assess the effect of Compound I on heart fibrosis. In summary, male 6-week old Sprague-Dawley rats were subjected to 5/6-Nx or sham operations. Briefly, two-thirds of the left kidney was removed on day 0 followed by the right total nephrectomy on day 7. A catheter was implanted via the femoral vein on day 7. Sham operated rats underwent exposition of the kidneys and removal of the perirenal fat and were used as controls. Animals that underwent the sham operation were treated with vehicle (water) and were used as controls. On day 21, rats were randomized based on their glomerular filtration rate (GFR) results. 5/6-Nx animals were treated with three times a week intravenous administration of Compound I (10 mg/kg), or with daily oral administration with Compound I (200 mg/kg). Heart fibrosis was determined by the measurement of hydroxyproline (collagen content) and by histological evaluation (HPE and Masson's trichrome staining). As mentioned, implantation of catheter for intravenous administration of compounds in catheterized 5/6 nephrectomized animals is inducing heart fibrosis compare to oral treatment (no catheter). Oral treatment is identified herein with the expression “po” that means “per os”; intravenous administration is identified with the expression “iv” for “intravenous”. As exemplified in FIG. 27, 5/6-Nx rats have weak heart lesions. However, implantation of a catheter induced a significant increase (4 times) of heart lesions (fibrosis, necrosis and inflammation).

With `CCCCCc1cccc(CC(=O)[O-])c1.[Na+]` [Compound I, Sodium Salt of 3-pentylphenylacetic acid] the “CTGF mRNA expression in lungs” value ([1]; oral 100 and 200 mg/kg, Example 21, FIG. 4) was “significantly decreased the expression”, the “IL-23p19 mRNA expression in lungs” value ([1]; oral 100 and 200 mg/kg, Example 21, FIG. 5) was “significantly decreased the expression” and the “collagen 1 mRNA expression in lungs” value ([1]; oral 100 and 200 mg/kg, Example 21, FIG. 6) was “significantly decreased the expression”. The “TGF-β mRNA expression in lungs” value ([1]; oral, Compound I 200 mg/kg, pirfenidone 400 mg/kg, alone or combined, FIG. 12) was “significantly decreased the expression”, the “CTGF mRNA expression in lungs” value ([1]; oral, Compound I 200 mg/kg, pirfenidone 400 mg/kg, alone or combined, FIG. 13) was “significantly decreased the expression” and the “IL-23 mRNA expression in lungs” value ([1]; oral, Compound I 200 mg/kg, pirfenidone 400 mg/kg, alone or combined, FIG. 14) was “significantly decreased the expression”. The “IL-6 mRNA expression in lungs” value ([1]; oral, Compound I 200 mg/kg, pirfenidone 400 mg/kg, alone or combined, FIG. 15) was “significantly decreased the expression”, the “collagen 3 mRNA expression in lungs” value ([1]; oral, Compound I 200 mg/kg, pirfenidone 400 mg/kg, alone or combined, FIG. 18) was “weak reduction” and the “collagen 1 mRNA expression in lungs” value ([1]; oral, Compound I 200 mg/kg, pirfenidone 400 mg/kg, alone or combined, reduction to the control level, FIG. 16) was “significant reduction”. The “fibronectin (FN-1) mRNA expression in lungs” value ([1]; oral, Compound I 200 mg/kg, pirfenidone 400 mg/kg, alone or combined, reduction to the control level, FIG. 17) was “significant reduction”, the “TGF-β-induced CTGF transcript expression” value ([2]; TGF-β 5 ng/ml, compound 500 μM, FIG. 23) was “inhibited” and the “TGF-β-induced collagen 1 transcript expression” value ([2]; TGF-β 5 ng/ml, compound 500 μM, FIG. 24) was “inhibited”. The “TGF-β-induced α-SMA transcript expression” value ([2]; TGF-β 5 ng/ml, compound 500 μM, FIG. 25) was “inhibited”, the “inhibition of α-SMA in TGF-β induced fibroblasts” value ([2]; TGF-β induced) was 90% and the “basal expression of CTGF” value ([2]; compound alone (0.5 mM), no TGF-β, FIG. 23) was “decreased basal expression”. The “basal expression of collagen 1” value ([2]; compound alone (0.5 mM), no TGF-β, FIG. 24) was “decreased basal expression”, the “basal expression of α-SMA” value ([2]; compound alone (0.5 mM), no TGF-β, FIG. 25) was “decreased basal expression” and the “EGF-stimulated fibroblast migration and invasion into the scratch” value [3] was “reduction of the migration and invasion; also recorded: inhibited”. For the same compound, the inhibition at 500 µM [4] was 86%, the inhibition at 500 µM [5] was 65% and the inhibition at 500 µM (α-SMA mRNA in NHDF cells) was 99%. For the same compound, the “inflammation level in heart” value ([6]; intravenous 10 mg/kg three times a week, FIG. 29) was “significant reduction of inflammation”, the “necrosis level in heart” value ([6]; intravenous 10 mg/kg three times a week, FIG. 30) was “significant reduction of necrosis” and the “hydroxyproline (collagen) content in heart” value ([6]; intravenous 10 mg/kg three times a week) was “significant reduction”. For the same compound, the “total heart lesions (histological evaluation)” value ([6]; intravenous 10 mg/kg three times a week, p<0.05, FIG. 28) was “reduces significantly”, the “heart fibrosis (blue-colored collagen deposition, Masson's trichrome photomicrographs)” value ([6]; intravenous, FIG. 34) was “reduces fibrosis” and the “hydroxyproline (collagen) content in heart” value ([6]; oral 200 mg/kg daily) was “significant reduction”. The “heart fibrosis (blue-colored collagen deposition, Masson's trichrome photomicrographs)” value ([6]; oral, FIGS. 32 and 33) was “reduces fibrosis”.
